Experimental data as given in patent US20100056516A1 (priority 2006, published 2010).

What was measured:
HIV integrase = HIV integrase (Human immunodeficiency virus type 1 group M subtype B, UniProt P04585); test: integrase strand transfer assay (STA); format: biochemical; conditions: integrase strand transfer; read-out: IC50 in the STA assay
HXB2 virus = test: microbe, parasite or virus in culture; format: cell-based, HIV; conditions: Human immunodeficiency virus 1, HXB2, HeLaP4-2, read-out: antiviral IC50 (SCIA-B)
Method in brief: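 HXB2 virus used to infect HeLa P4-2 cells in a single-cycle format; inhibition of acute infection is measured.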

| SMILES | IC50 (HIV integrase) [µM] | IC50 (HXB2 virus) [µM] |
| --- | --- | --- |
| O=C1N[C@H](c2ccccc2)[C@H](c2ccccc2)Nc2c1c(=O)n(O)c1ncccc21 [Example 170, (2S, 3R)-7-hydroxy-2,3-diphenyl-3,4-dihydro-1H-[1,4]diazepino[6,5-c]-1,8-naphthyridine-5,6(2H, 7H)-dione] | < 50 | < 100 |
| O=c1cc(-c2ccccc2)c2cccnc2n1O [Example 171, 1-Hydroxy-4-phenyl-1,8-naphthyridin-2(H)-one] | < 50 | < 100 |
| O=c1cc(-c2ccc3ccccc3c2)c2cccnc2n1O [Example 173, 1-hydroxy-4-(2-naphthyl)-1,8-naphthyridin-2(1H)-one] | < 50 | < 100 |
| CC(c1ccc(-c2cc(=O)n(O)c3ncccc23)cc1)N1CCOCC1 (stereo not shown) [Example 174, 1-hydroxy-4-[4-(1-morpholin-4-ylethyl)phenyl]-1,8-naphthyridin-2(1H)-one] | < 50 | < 100 |
| CS(=O)(=O)Nc1cccc(-c2cc(=O)n(O)c3ncccc23)c1 [Example 175, N-[3-(1-hydroxy-2-oxo-1,2-dihydro-1,8-naphthyridin-4-yl)phenyl]methanesulfo-namide] | < 50 | < 100 |
| Cc1cc(C)n(-c2cccc(-c3cc(=O)n(O)c4ncccc34)c2)n1 [Example 176] | < 50 | < 100 |
| CS(=O)(=O)Nc1cccc(-c2cccc(-c3cc(=O)n(O)c4ncccc34)c2)c1 [Example 177, N-[3′-(1-hydroxy-2-oxo-1,2-dihydro-1,8-naphthyridin-4-yl)biphenyl-3-yl]methanesulfonamide] | < 50 | < 100 |
| CC(c1ccc(-c2cccc(-c3cc(=O)n(O)c4ncccc34)c2)cc1)N1CCOCC1 (stereo not shown) [Example 178, 1-hydroxy-4-[4′-(1-morpholin-4-ylethyl)biphenyl-3-yl]-1,8-naphthyridin-2(1H)-one] | < 50 | < 100 |
| O=C(c1cccc(-c2cc(=O)n(O)c3ncccc23)c1)N1CCOCC1 [Example 179, 1-hydroxy-4-[3-(morpholin-4-ylcarbonyl)phenyl]-1,8-naphthyridin-2(1H)-one] | < 50 | < 100 |
| CNC(=O)c1cccc(-c2cc(=O)n(O)c3ncccc23)c1 [Example 180, 3-(1-hydroxy-2-oxo-1,2-dihydro-1,8-naphthyridin-4-yl)-N-methylbenzamide] | < 50 | < 100 |
| CN(C)C(=O)c1cccc(-c2cc(=O)n(O)c3ncccc23)c1 [Example 181, 3-(1-hydroxy-2-oxo-1,2-dihydro-1,8-naphthyridin-4-yl)-N,N-dimethylbenzamide] | < 50 | < 100 |
| CC(C)(C)NC(=O)c1cccc(-c2cc(=O)n(O)c3ncccc23)c1 [Example 182] | < 50 | < 100 |
| O=c1cc(-c2cccc(CO)c2)c2cccnc2n1O [Example 183, 1-hydroxy-4-[3-(hydroxymethyl)phenyl]-1,8-naphthyridin-2(1H)-one] | < 50 | < 100 |
| O=c1cc(-c2ccc3ncccc3c2)c2cccnc2n1O [Example 184, 1-hydroxy-4-quinolin-6-yl-1,8-naphthyridin-2(1H)-one] | < 50 | < 100 |
| COc1ccc(-c2ccncc2)cc1-c1cc(=O)n(O)c2ncccc12 [Example 185, 1-hydroxy-4-(2-methoxy-5-pyridin-4-ylphenyl)-1,8-naphthyridin-2(1H)-one] | < 50 | < 100 |
| O=c1cc(-c2ccc3cc[nH]c3c2)c2cccnc2n1O [Example 186, 1-hydroxy-4-(1H-indol-6-yl)-1,8-naphthyridin-2(1H)-one] | < 50 | < 100 |
| COC(=O)CCc1cccc(-c2cccc(-c3cc(=O)n(O)c4ncccc34)c2)c1 [Example 187, methyl-3-[3′-(1-hydroxy-2-oxo-1,2-dihydro-1,8-naphthyridin-4-yl)biphenyl-3-yl]-propanoate] | < 50 | < 100 |
